From patent publication US20230271950A1, “ANTIBACTERIAL PICOLINAMIDE COMPOUNDS” (University of Notre Dame Du Lac, priority 2020, published 2023)
Like-named read-outs stand apart in the source and are kept apart here.

How the values were obtained:
[1] = tested on: Lactobacillus reuteri; experiment: MIC against gut bacterium Lactobacillus reuteri; format: cell-based
[2] = tested on: Bifidobacterium longum; experiment: MIC against gut bacterium Bifidobacterium longum; format: cell-based; conditions: Bifidobacterium longum, Bifidobacterium longum strain HM-846, read-out: MIC
[3] = tested on: MRSA (NRS70, NRS119); experiment: MIC against MRSA strains; format: cell-based, Staphylococcus aureus; conditions: for MIC: Staphylococcus aureus, read-out: MIC
[4] = tested on: Fusobacterium nucleatum; experiment: MIC against gut bacterium Fusobacterium nucleatum; format: cell-based; conditions: Fusobacterium nucleatum, Fusobacterium nucleatum strain HM-992, read-out: MIC
[5] = tested on: Corynebacterium spp.; experiment: MIC against gut bacterium Corynebacterium spp.; format: cell-based; conditions: Corynebacterium, Corynebacterium spp. strain HM-784
[6] = tested on: C. difficile; experiment: MIC by broth microdilution against C. difficile strains; format: cell-based, Clostridioides difficile
[7] = tested on: Lactobacillus gasseri; experiment: MIC against gut bacterium Lactobacillus gasseri; format: cell-based
[8] = tested on: E. faecium NCTC7171; experiment: MIC against E. faecium; format: cell-based, Enterococcus faecium; conditions: Enterococcus faecium
[9] = tested on: S. aureus ATCC29213; experiment: MIC against MSSA; format: cell-based, Staphylococcus aureus; conditions: Staphylococcus aureus
[10] = tested on: Eubacterium sp.; experiment: MIC against gut bacterium Eubacterium sp.; format: cell-based; conditions: Eubacterium, Eubacterium sp. strain HM-178, read-out: MIC
[11] = tested on: Veillonella sp. HM-49; experiment: MIC against gut bacterium Veillonella sp.; format: cell-based
[12] = tested on: Bacteroides fragilis; experiment: MIC against gut bacterium Bacteroides fragilis; format: cell-based; conditions: Bacteroides fragilis, Bacteroides fragilis strain HM-709, read-out: MIC

O=C(O)c1ccc2oc(NC(=O)c3cc(Oc4cccc(OC(F)(F)F)c4)ccn3)nc2c1 [Compound 1, Sodium 2-(4-(3-(trifluoromethoxy)phenoxy)picolinamido)benzo[d]oxazole-5-carboxylate]
0.03 µg/mL: MIC ([6]; Clostridioides difficile, C. difficile NR-49285, Table 9, read-out: MIC)
16 µg/mL: MIC ([2]; Table 1) | MIC ([2]; Table 7) | MIC ([3]; MRSA NRS70, Table 1) | MIC ([3]; MRSA NRS70, Table 7) | MIC ([3]; MRSA NRS119, Table 1) | MIC ([10]; Table 7) | MIC ([11]; SP.HM49, Veillonella sp. HM-49, Table 1, read-out: MIC) | MIC ([11]; Veillonella sp. strain HM-49, Table 7)
0.25 µg/mL: MIC ([6]; Clostridioides difficile, C. difficile 23828 (FR, fidaxomicin-resistant), Table 7, read-out: MIC) | MIC ([6]; Clostridioides difficile, C. difficile 23828, clinical isolate resistant to FDX, Table 1, read-out: MIC) | MIC ([6]; Clostridioides difficile, C. difficile 23828, Table 9, read-out: MIC) | MIC ([6]; Clostridioides difficile, C. difficile 24531 (VR, vancomycin-resistant), Table 7, read-out: MIC) | MIC ([6]; Clostridioides difficile, C. difficile 24531, Table 9, read-out: MIC) | MIC ([6]; Clostridioides difficile, C. difficile 26675 (MR, metronidazole-resistant), Table 7, read-out: MIC) | MIC ([6]; Clostridioides difficile, C. difficile 26675, clinical isolate resistant to MTZ, Table 1, read-out: MIC) | MIC ([6]; Clostridioides difficile, C. difficile 26675, Table 9, read-out: MIC) | MIC ([6]; Clostridioides difficile, C. difficile HM-88, Table 9, read-out: MIC) | MIC ([6]; Clostridioides difficile, C. difficile NR-13433, Table 9, read-out: MIC) | MIC ([6]; Clostridioides difficile, C. difficile NR-32885, Table 9, read-out: MIC) | MIC ([6]; Clostridioides difficile, C. difficile NR-32890, Table 9, read-out: MIC) | MIC ([6]; Clostridioides difficile, C. difficile NR-32891, Table 9, read-out: MIC) | MIC ([6]; Clostridioides difficile, C. difficile NR-32895, Table 9, read-out: MIC) | MIC ([6]; Clostridioides difficile, C. difficile NR-32896, Table 9, read-out: MIC) | MIC ([6]; Clostridioides difficile, C. difficile NR-32903, Table 9, read-out: MIC) | MIC ([6]; Clostridioides difficile, C. difficile NR-49284, Table 9, read-out: MIC) | MIC ([6]; Clostridioides difficile, C. difficile NR-49289, Table 9, read-out: MIC) | MIC ([6]; Clostridioides difficile, C. difficile NR-49304, Table 9, read-out: MIC) | MIC ([6]; Clostridioides difficile, C. difficile NR-49306, Table 9, read-out: MIC) | MIC ([6]; Clostridioides difficile, C. difficile NR-49311, Table 9, read-out: MIC) | MIC ([6]; Clostridioides difficile, C. difficile NR-49321, Table 9, read-out: MIC) | MIC ([6]; Clostridioides difficile, C. difficile NR-49327, Table 9, read-out: MIC) | MIC90 ([6]; Clostridioides difficile, 101 C. difficile strains, read-out: MIC90 (101 strains))
8 µg/mL: MIC ([5]; Table 1) | MIC ([5]; Table 7) | MIC ([10]; Table 1)
4 mg/L: MIC ([1]; Lactobacillus reuteri strain HM-102, Table 7) | MIC ([1]; Limosilactobacillus reuteri, Lactobacillus reuter strain HM-102, Table 1, read-out: MIC)
> 128 µg/mL: MIC ([8]; E. faecium NCTC7171, Table 1, read-out: MIC)
0.125 µg/mL: MIC ([6]; C. difficile 23691 (VR, vancomycin-resistant), Table 7) | MIC ([6]; C. difficile 23691, Table 9) | MIC ([6]; C. difficile 24923 (VR, vancomycin-resistant), Table 7) | MIC ([6]; C. difficile 24923, Table 9) | MIC ([6]; C. difficile 27081 (FR, fidaxomicin-resistant), Table 7) | MIC ([6]; C. difficile 27081, Table 9) | MIC ([6]; C. difficile 27173 (MR, metronidazole-resistant), Table 7) | MIC ([6]; C. difficile 27173, Table 9) | MIC ([6]; C. difficile ATCC43255, Table 7) | MIC ([6]; C. difficile ATCC43255, Table 9) | MIC ([6]; C. difficile ATCC43598, Table 9) | MIC ([6]; C. difficile BAA-1801, Table 9) | MIC ([6]; C. difficile BAA-1804, Table 9) | MIC ([6]; C. difficile BAA-1812, Table 9) | MIC ([6]; C. difficile BAA-1814, Table 9) | MIC ([6]; C. difficile BAA-1870, Table 7) | MIC ([6]; C. difficile BAA-1870, Table 9) | MIC ([6]; C. difficile HM-89, Table 9) | MIC ([6]; C. difficile HM-745, Table 9) | MIC ([6]; C. difficile HM-746, Table 9) | MIC ([6]; C. difficile HM-747, Table 9) | MIC ([6]; C. difficile NR49292, Table 7) | MIC ([6]; C. difficile NR49292, Table 9) | MIC ([6]; C. difficile NR49310, Table 7) | MIC ([6]; C. difficile NR49310, Table 9) | MIC ([6]; C. difficile NR-13427, Table 9) | MIC ([6]; C. difficile NR-13428, Table 9) | MIC ([6]; C. difficile NR-13430, Table 9) | MIC ([6]; C. difficile NR-13434, Table 9) | MIC ([6]; C. difficile NR-13435, Table 9) | MIC ([6]; C. difficile NR-13436, Table 9) | MIC ([6]; C. difficile NR-13437, Table 9) | MIC ([6]; C. difficile NR-13438, Table 9) | MIC ([6]; C. difficile NR-13553, Table 9) | MIC ([6]; C. difficile NR-32882, Table 9) | MIC ([6]; C. difficile NR-32883, Table 9) | MIC ([6]; C. difficile NR-32884, Table 9) | MIC ([6]; C. difficile NR-32886, Table 9) | MIC ([6]; C. difficile NR-32887, Table 9) | MIC ([6]; C. difficile NR-32888, Table 9) | MIC ([6]; C. difficile NR-32889, Table 9) | MIC ([6]; C. difficile NR-32892, Table 9) | MIC ([6]; C. difficile NR-32897, Table 9) | MIC ([6]; C. difficile NR-32900, Table 9) | MIC ([6]; C. difficile NR-32904, Table 9) | MIC ([6]; C. difficile NR-49277, Table 9) | MIC ([6]; C. difficile NR-49278, Table 9) | MIC ([6]; C. difficile NR-49279, Table 9) | MIC ([6]; C. difficile NR-49280, Table 9) | MIC ([6]; C. difficile NR-49282, Table 9) | MIC ([6]; C. difficile NR-49286, Table 9) | MIC ([6]; C. difficile NR-49288, Table 9) | MIC ([6]; C. difficile NR-49290, Table 9) | MIC ([6]; C. difficile NR-49291, Table 9) | MIC ([6]; C. difficile NR-49293, Table 9) | MIC ([6]; C. difficile NR-49295, Table 9) | MIC ([6]; C. difficile NR-49296, Table 9) | MIC ([6]; C. difficile NR-49299, Table 9) | MIC ([6]; C. difficile NR-49300, Table 9) | MIC ([6]; C. difficile NR-49301, Table 9) | MIC ([6]; C. difficile NR-49303, Table 9) | MIC ([6]; C. difficile NR-49307, Table 9) | MIC ([6]; C. difficile NR-49308, Table 9) | MIC ([6]; C. difficile NR-49309, Table 9) | MIC ([6]; C. difficile NR-49312, Table 9) | MIC ([6]; C. difficile NR-49314, Table 9) | MIC ([6]; C. difficile NR-49315, Table 9) | MIC ([6]; C. difficile NR-49316, Table 9) | MIC ([6]; C. difficile NR-49317, Table 9) | MIC ([6]; C. difficile NR-49319, Table 9) | MIC ([6]; C. difficile NR-49320, Table 9) | MIC ([6]; C. difficile NR-49323, Table 9) | MIC ([6]; C. difficile NR-49324, Table 9) | MIC ([6]; C. difficile NR-49325, Table 9) | MIC ([6]; C. difficile NR-49326, Table 9) | MIC ([6]; C. difficile NR-49329, Table 9) | MIC ([6]; C. difficile, Table 8) | MIC ([6]; Clostridioides difficile) | MIC ([6]; Clostridioides difficile, ATCC43255) | MIC ([6]; Clostridioides difficile, ATCC43598) | MIC ([6]; Clostridioides difficile, BAA1801) | MIC ([6]; Clostridioides difficile, BAA1804) | MIC ([6]; Clostridioides difficile, BAA1812) | MIC ([6]; Clostridioides difficile, BAA1814) | MIC ([6]; Clostridioides difficile, BAA1870)
128 fold: lower activity against MRSA ([3]; MRSA versus C. difficile, Table 1)
64 µg/mL: MIC ([9]; MSSA ATCC 29213, Table 10, unit inferred, read-out: Activity (MIC) against S. aureus) | MIC ([9]; S. aureus ATCC29213, Table 1, read-out: MIC)
0.0625 µg/mL: MIC ([6]; Clostridioides difficile, BAA1803, C. difficile BAA-1803, Table 7, read-out: MIC) | MIC ([6]; Clostridioides difficile, C. difficile NR49294, Table 7, read-out: MIC) | MIC ([6]; Clostridioides difficile, C. difficile NR49302, Table 7, read-out: MIC) | MIC ([6]; Clostridioides difficile, C. difficile NR49305, Table 7, read-out: MIC)
≥ 128 µg/mL: MIC ([8]; NCTC7171, E. faecium NCTC 7171, Table 10, unit inferred, read-out: Activity (MIC) against E. faecium)
>16 mg/L: MIC ([7]; Lactobacillus gasseri strain HM-644, Table 7)
0.12 µg/mL: MIC ([6]; Clostridioides difficile, ATCC43255, C. difficile ATCC 43255, read-out: MIC against C. difficile) | MIC50 ([6]; Clostridioides difficile, 101 C. difficile strains)
> 16 mg/L: MIC ([7]; Lactobacillus gasseri, Lactobacillus gasser strain HM-644, Table 1, read-out: MIC)
128: Selectivity ([6]; MIC MRSA NRS70/MIC C. difficile ATCC43255, Table 7) | Selectivity ([6]; Table 8)
2 µg/mL: MIC ([12]; Table 1)
0.06 µg/mL: MIC ([6]; Clostridioides difficile, BAA1803, C. difficile BAA-1803, Table 9, read-out: MIC) | MIC ([6]; Clostridioides difficile, C. difficile NR49294, Table 9, read-out: MIC) | MIC ([6]; Clostridioides difficile, C. difficile NR49302, Table 9, read-out: MIC) | MIC ([6]; Clostridioides difficile, C. difficile NR49305, Table 9, read-out: MIC) | MIC ([6]; Clostridioides difficile, C. difficile NR49318, Table 7, read-out: MIC) | MIC ([6]; Clostridioides difficile, C. difficile NR49318, Table 9, read-out: MIC) | MIC ([6]; Clostridioides difficile, C. difficile NR-13429, Table 9, read-out: MIC) | MIC ([6]; Clostridioides difficile, C. difficile NR-13431, Table 9, read-out: MIC) | MIC ([6]; Clostridioides difficile, C. difficile NR-49281, Table 9, read-out: MIC) | MIC ([6]; Clostridioides difficile, C. difficile NR-49283, Table 9, read-out: MIC) | MIC ([6]; Clostridioides difficile, C. difficile NR-49287, Table 9, read-out: MIC) | MIC ([6]; Clostridioides difficile, C. difficile NR-49297, Table 9, read-out: MIC) | MIC ([6]; Clostridioides difficile, C. difficile NR-49298, Table 9, read-out: MIC) | MIC ([6]; Clostridioides difficile, C. difficile NR-49313, Table 9, read-out: MIC) | MIC ([6]; Clostridioides difficile, C. difficile NR-49328, Table 9, read-out: MIC)
4 µg/mL: MIC ([4]; Table 1) | MIC ([4]; Table 7) | MIC ([12]; Table 7)
